Key:
Format in all cases: in vivo
[1] = system: AMAPA; assay: Pre-emergence biological efficacy; conditions: evaluated after 13 days; for pest or weed control at 250 g/ha: 312 h, read-out: damage to plant (100=total damage to plant; 0=no damage to plant), AMAPA
Protocol: (§1) Pre-Emergence Biological Efficacy
(§2) Seeds of weeds and/or crops were sown in standard soil in pots. After cultivation for one day under controlled conditions in a glasshouse (at 24/16° C., day/night; 14 hours light; 65% humidity), the plants were sprayed with an aqueous spray solution derived from the formulation of the technical active ingredient in acetone/water (50:50) solution containing 0.5% Tween 20 (polyoxyethylene sorbitan monolaurate, CAS RN 9005-64-5) to give the desired final dose of test compound.
(§3) The test plants were then grown under controlled conditions in the glasshouse (at 24/16° C., day/night; 14 hours light; 65% humidity) and watered twice daily. After 13 days the test was evaluated (100=total damage to plant; 0=no damage to plant).

[2] = system: ECHCG; assay: Pre-emergence biological efficacy; conditions: evaluated after 13 days; for pest or weed control at 250 g/ha: Echinochloa crus-galli, 312 h, read-out: damage to plant (100=total damage to plant; 0=no damage to plant), ECHCG
Protocol: as §1, §2, §3

[3] = system: EPHHL; assay: Pre-emergence biological efficacy; conditions: evaluated after 13 days; for pest or weed control at 250 g/ha: 312 h, read-out: damage to plant (100=total damage to plant; 0=no damage to plant), EPHHL
Protocol: as §1, §2, §3

[4] = system: IPOHE; assay: Pre-emergence biological efficacy; conditions: evaluated after 13 days; for pest or weed control at 250 g/ha: Ipomoea hederacea, 312 h, read-out: damage to plant (100=total damage to plant; 0=no damage to plant), IPOHE
Protocol: as §1, §2, §3

[5] = system: LOLPE; assay: Pre-emergence biological efficacy; conditions: evaluated after 13 days; for pest or weed control at 250 g/ha: 312 h, read-out: damage to plant (100=total damage to plant; 0=no damage to plant), LOLPE
Protocol: as §1, §2, §3

[6] = system: SETFA; assay: Pre-emergence biological efficacy; conditions: evaluated after 13 days; for pest or weed control at 250 g/ha: Setaria faberi, 312 h, read-out: damage to plant (100=total damage to plant; 0=no damage to plant), SETFA
Protocol: as §1, §2, §3

[7] = system: AMAPA; assay: Post-emergence biological efficacy; conditions: evaluated after 13 days; for pest or weed control at 250 g/ha: 312 h, read-out: damage to plant (100=total damage to plant; 0=no damage to plant), AMAPA
Protocol: (§4) Post-Emergence Biological Efficacy
(§5) Seeds of weeds and/or crops were sown in standard soil in pots. After cultivation for 8 days under controlled conditions in a glasshouse (at 24/16° C., day/night; 14 hours light; 65% humidity), the plants were sprayed with an aqueous spray solution derived from the formulation of the technical active ingredient in acetone/water (50:50) solution containing 0.5% Tween 20 (polyoxyethylene sorbitan monolaurate, CAS RN 9005-64-5) to give the desired final dose of test compound.
(§6) The test plants were then grown on under controlled conditions in a glasshouse (at 24/16° C., day/night; 14 hours light; 65% humidity) and watered twice daily. After 13 days the test was evaluated (100=total damage to plant; 0=no damage to plant).

[8] = system: CHEAL; assay: Post-emergence biological efficacy; conditions: evaluated after 13 days; for pest or weed control at 250 g/ha: Chenopodium album, 312 h, read-out: damage to plant (100=total damage to plant; 0=no damage to plant), CHEAL
Protocol: as §4, §5, §6

[9] = system: DIGSA; assay: Post-emergence biological efficacy; conditions: evaluated after 13 days; for pest or weed control at 250 g/ha: Digitaria sanguinalis, 312 h, read-out: damage to plant (100=total damage to plant; 0=no damage to plant), DIGSA
Protocol: as §4, §5, §6

[10] = system: ECHCG; assay: Post-emergence biological efficacy; conditions: evaluated after 13 days; for pest or weed control at 250 g/ha: Echinochloa crus-galli, 312 h, read-out: damage to plant (100=total damage to plant; 0=no damage to plant), ECHCG
Protocol: as §4, §5, §6

[11] = system: ELEIN; assay: Post-emergence biological efficacy; conditions: evaluated after 13 days; for pest or weed control at 250 g/ha: 312 h, read-out: damage to plant (100=total damage to plant; 0=no damage to plant), ELEIN
Protocol: as §4, §5, §6

[12] = system: EPHHL; assay: Post-emergence biological efficacy; conditions: evaluated after 13 days; for pest or weed control at 250 g/ha: 312 h, read-out: damage to plant (100=total damage to plant; 0=no damage to plant), EPHHL
Protocol: as §4, §5, §6

[13] = system: IPOHE; assay: Post-emergence biological efficacy; conditions: evaluated after 13 days; for pest or weed control at 250 g/ha: Ipomoea hederacea, 312 h, read-out: damage to plant (100=total damage to plant; 0=no damage to plant), IPOHE
Protocol: as §4, §5, §6

[14] = system: LOLPE; assay: Post-emergence biological efficacy; conditions: evaluated after 13 days; for pest or weed control at 250 g/ha: 312 h, read-out: damage to plant (100=total damage to plant; 0=no damage to plant), LOLPE
Protocol: as §4, §5, §6

[15] = system: SETFA; assay: Post-emergence biological efficacy; conditions: evaluated after 13 days; for pest or weed control at 250 g/ha: Setaria faberi, 312 h, read-out: damage to plant (100=total damage to plant; 0=no damage to plant), SETFA
Protocol: as §4, §5, §6

SMILES	pest or weed control at 250 g/ha [1] [%]	pest or weed control at 250 g/ha [2] [%]	pest or weed control at 250 g/ha [3] [%]	pest or weed control at 250 g/ha [4] [%]	pest or weed control at 250 g/ha [5] [%]	pest or weed control at 250 g/ha [6] [%]	pest or weed control at 250 g/ha [7] [%]	pest or weed control at 250 g/ha [8] [%]	pest or weed control at 250 g/ha [9] [%]	pest or weed control at 250 g/ha [10] [%]	pest or weed control at 250 g/ha [11] [%]	pest or weed control at 250 g/ha [12] [%]	pest or weed control at 250 g/ha [13] [%]	pest or weed control at 250 g/ha [14] [%]	pest or weed control at 250 g/ha [15] [%]	other results
CC(=O)OCC1(C)CC(c2cc(-n3c(=O)n(C)c(=S)n(C)c3=O)c(F)cc2Cl)=NO1 (stereo not shown) [Compound 51, [3-[2-Chloro-5-(3,5-dimethyl-2,6-dioxo-4-thioxo-1,3,5-triazinan-1-yl)-4-fluoro-phenyl]-5-methyl-4H-isoxazol-5-yl]methyl acetate]	100	90	100	80	90	100	100	100	100	30	80	100	90	50	100	
CCOC(=O)C1(C)CC(c2cc(-n3c(=O)n(C)c(=S)n(C)c3=O)c(F)cc2Cl)=NO1 (single isomer, unassigned) [Compound 47 (enantiomer A)]																damage to plant (100=total damage to plant; 0=no damage to plant), AMAPA ([1]; 250 g/ha): 100; damage to plant (100=total damage to plant; 0=no damage to plant), ECHCG ([2]; 250 g/ha): 60; damage to plant (100=total damage to plant; 0=no damage to plant), EPHHL ([3]; 250 g/ha): 100; damage to plant (100=total damage to plant; 0=no damage to plant), IPOHE ([4]; 250 g/ha): 90; damage to plant (100=total damage to plant; 0=no damage to plant), LOLPE ([5]; 250 g/ha): 50; damage to plant (100=total damage to plant; 0=no damage to plant), SETFA ([6]; 250 g/ha): 100; damage to plant (100=total damage to plant; 0=no damage to plant), AMAPA ([7]; 250 g/ha): 100; damage to plant (100=total damage to plant; 0=no damage to plant), CHEAL ([8]; 250 g/ha): 100; damage to plant (100=total damage to plant; 0=no damage to plant), DIGSA ([9]; 250 g/ha): 100; damage to plant (100=total damage to plant; 0=no damage to plant), ECHCG ([10]; 250 g/ha): 100; damage to plant (100=total damage to plant; 0=no damage to plant), ELEIN ([11]; 250 g/ha): 90; damage to plant (100=total damage to plant; 0=no damage to plant), EPHHL ([12]; 250 g/ha): 90; damage to plant (100=total damage to plant; 0=no damage to plant), IPOHE ([13]; 250 g/ha): 100; damage to plant (100=total damage to plant; 0=no damage to plant), LOLPE ([14]; 250 g/ha): 70; damage to plant (100=total damage to plant; 0=no damage to plant), SETFA ([15]; 250 g/ha): 100
CCOC(=O)C1(C)CC(c2cc(-n3c(=O)n(C)c(=S)n(C)c3=O)c(Cl)cc2Cl)=NO1 (stereo not shown) [Compound 58, Ethyl 3-[2,4-dichloro-5-(3,5-dimethyl-2,6-dioxo-4-thioxo-1,3,5-triazinan-1-yl)phenyl]-5-methyl-4H-isoxazole-5-carboxylate]	90	0	0	60	0	0	90	90	80	90	90	70	100	30	90	
CC(=O)C1(C)CC(c2cc(-n3c(=O)n(C)c(=S)n(C)c3=O)c(F)cc2Cl)=NO1 (stereo not shown) [Compound 290, 3-[5-(5-Acetyl-5-methyl-4H-isoxazol-3-yl)-4-chloro-2-fluoro-phenyl]-1,5-dimethyl-6-thioxo-1,3,5-triazinane-2,4-dione]	100	90	100	100	90	100	100	100	100	90	100	100	100	90	90	
COC(=O)C1(C)ON=C(c2cc(-n3c(=O)n(C)c(=S)n(C)c3=O)c(F)cc2Cl)C1C (stereo not shown) [Compound 145, Methyl 3-[2-chloro-5-(3,5-dimethyl-2,6-dioxo-4-thioxo-1,3,5-triazinan-1-yl)-4-fluoro-phenyl]-4,5-dimethyl-4H-isoxazole-5-carboxylate]	100	90	100	100	90	100	100	100	100	100	100	100	100	100	100	
Cn1c(=S)n(C)c(=O)n(-c2cc(C3=NOC(C)(COS(C)(=O)=O)C3)c(Cl)cc2F)c1=O (stereo not shown) [Compound 53, [3-[2-chloro-5-(3,5-dimethyl-2,6-dioxo-4-thioxo-1,3,5-triazinan-1-yl)-4-fluoro-phenyl]-5-methyl-4H-isoxazol-5-yl]methyl methanesulfonate]	100	60		0	70	100	90	90	70	30	80	90	80	40	40	
COC(=O)C1(C(F)(F)F)CC(c2cc(-n3c(=O)n(C)c(=S)n(C)c3=O)c(F)cc2Cl)=NO1 (stereo not shown) [Compound 262, Methyl 3-[2-chloro-5-(3,5-dimethyl-2,6-dioxo-4-thioxo-1,3,5-triazinan-1-yl)-4-fluoro-phenyl]-5-trifluoromethyl-4H-isoxazole-5-carboxylate]		30	0	0	30	50	40	30	50	20	40	60	50	0	30	

— US12202821B2, “Herbicidal compounds” (SYNGENTA CROP PROTECTION AG, priority 2019, dated 2025)
